This is an account of results in patent US20070134353A1, “PHYTOESTROGENIC COMPOSITION COMPRISING AN EXTRACT OF CHINESE LICORICE ROOT, ISOLIQUIRITIN OR LIQUIRITIN” (priority 2004, published 2007).

Test [1] concerns MCF-7 breast cancer cells. Description: Inhibitory effect on MCF-7 cell line proliferation (DNA content, OD 260 nm). To be noted: for inhibition of proliferation of MCF-7 breast cancer cell line: 100 μg/ml; for inhibition of proliferation of cancer cells including breast cancer cells: summary statement, no concentration given. Format: cell-based. The method, then:
(§1) 5×10^4 cells/ml of MCF-7 cells (ATCC HTB-22) were placed in a 6-well culture plate and allowed to be attached for 24 hours. Phenol red-free D-medium supplemented with 5% fetal bovine serum (FBS) and 3 Ml/l PSN antibiotic mixture (Gibco, USA) was added thereto, followed by incubation in an incubator kept at 5% CO2, 95% air, 100% humidity, 37° C. for 24 hours. After incubation for 24 hours, the medium was removed and the cultured cells were incubated in phenol red-free D-medium supplemented with 5% DCC-FBS (dextran-coated charcoal-stripped FBS; […] During the incubation, the test media were changed once. After 72 hours, the cells were treated with 1 Ml of 0.1 N NaOH (Sigma Co.) and collected to examine DNA content with a spectrophotometer at OD 260 nm.

Test [2] relates to uterus and vagina of immature Sprague-Dawley rats. Description: Immature uterotrophic assay. Format: in vivo. The settings on record: BPA 40 mg/ml/100 g s.c. 3 days, compared to non-treated control group. As to the method: 40 immature Sprague-Dawley rats, aged 18 days, were kept in a breeding environment of a temperature of 22±3° C., a relative humidity of 50±10%, a ventilation frequency of 10 to 12 times/hr, light time of 12 hours, an illumination intensity of 150 to 200 lux while being supplied with AIN-76A diet (per 1 kg, thiamine HCI 0.6 g, riboflavin 0.6 g, pyridoxine HCI 0.7 g, […] 3.0 g, calcium pantothenate 1.6 g, folic acid 0.2 g, biotin 0.02 g, Vitamin B12 (0.1%) 1.0 g, Vitamin A palmitate (500,000 IU/g) 0.8 g, Vitamin D3 (400,000 IU/g) 0.25 g, Vitamin E acetate (500 IU/g) 10.0 g, menadion sodium bisulfite 0.08 g, fine powdery sucrose 981.15 g). Each rat was subcutaneously administered once daily with bisphenol A (40 mg/ml/100 g body weight) and the Chinese licorice root EtOH extract (10 mg or 50 mg/ml/100 g body weight) suspended in corn oil for 3 days. 24 hours after the last administration day, the animals were killed by cervical dislocation. […] In particular, the height of the luminal epithelium of the uterus lumen was measured and the luminal epithelium of the vagina was carefully observed. For statistical analysis of data with respect to body weight of test animals and the like which had been measured in the experiment, one-way ANOVA was performed to inspect significance between groups at p=0.05 level. […]

Test [3] has as its system bisphenol-A (BPA) activity in MCF-7 cells. Put plainly: Inhibitory effect on bisphenol-A (BPA) activity in MCF-7 cells. Format: cell-based. The settings on record: summary statement, no concentration given. The method, then:
as §1, with “nm. Additionally, in order to examine if the Chinese licorice root extract can suppress activity of bisphenol-A (BPA), which is an endocrine disruptor having tumor-inducing activity, in the foregoing experiment, BPA was used instead of the Chinese licorice root extract or the Chinese licorice root extract and BPA were used simultaneously. […]” for “nm.”

The target in a further test is T1, androgen receptor (hAR) (Homo sapiens, UniProt P10275).
T1 construct: expressed in transfected cells; host or cells: recombinant Saccharomyces cerevisiae (from Dr. Donald P. McDonnell, Duke University)
T1 sequence (P10275 1-920): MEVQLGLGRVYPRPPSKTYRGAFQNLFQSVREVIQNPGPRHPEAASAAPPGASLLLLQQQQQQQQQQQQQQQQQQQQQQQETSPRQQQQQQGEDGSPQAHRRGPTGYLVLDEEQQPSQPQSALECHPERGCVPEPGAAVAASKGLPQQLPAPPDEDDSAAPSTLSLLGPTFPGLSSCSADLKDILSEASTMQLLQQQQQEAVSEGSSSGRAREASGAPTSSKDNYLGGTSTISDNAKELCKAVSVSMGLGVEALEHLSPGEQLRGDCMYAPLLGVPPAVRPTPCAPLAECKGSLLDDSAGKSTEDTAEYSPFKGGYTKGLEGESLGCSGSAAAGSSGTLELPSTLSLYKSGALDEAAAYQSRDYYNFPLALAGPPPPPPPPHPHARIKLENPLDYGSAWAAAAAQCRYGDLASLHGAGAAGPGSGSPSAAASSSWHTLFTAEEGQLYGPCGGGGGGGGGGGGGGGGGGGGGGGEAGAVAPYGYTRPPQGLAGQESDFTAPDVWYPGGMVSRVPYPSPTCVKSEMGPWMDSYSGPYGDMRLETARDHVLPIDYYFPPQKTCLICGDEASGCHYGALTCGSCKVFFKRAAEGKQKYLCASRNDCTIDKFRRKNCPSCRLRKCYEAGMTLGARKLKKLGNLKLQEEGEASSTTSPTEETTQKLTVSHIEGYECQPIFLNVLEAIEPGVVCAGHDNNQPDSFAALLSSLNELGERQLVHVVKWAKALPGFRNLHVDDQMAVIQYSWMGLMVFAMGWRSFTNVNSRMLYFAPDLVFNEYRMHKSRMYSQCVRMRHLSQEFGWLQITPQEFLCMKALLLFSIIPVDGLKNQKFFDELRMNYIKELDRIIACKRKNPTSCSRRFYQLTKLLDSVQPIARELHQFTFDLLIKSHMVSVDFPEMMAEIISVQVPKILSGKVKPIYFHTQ
Put plainly: Yeast assay, yeast androgen response (YAR), β-gal reporter. Format: cell-based. The settings on record: summary statement, no concentration given.

The target of test [4] is T2, human estrogen receptor (hER) (Homo sapiens, UniProt P03372).
T2 construct: expressed in transfected cells; host or cells: Saccharomyces cerevisiae ER+LYS 8127 (from Dr. Donald P. McDonnell, Duke University)
T2 sequence (P03372 1-595): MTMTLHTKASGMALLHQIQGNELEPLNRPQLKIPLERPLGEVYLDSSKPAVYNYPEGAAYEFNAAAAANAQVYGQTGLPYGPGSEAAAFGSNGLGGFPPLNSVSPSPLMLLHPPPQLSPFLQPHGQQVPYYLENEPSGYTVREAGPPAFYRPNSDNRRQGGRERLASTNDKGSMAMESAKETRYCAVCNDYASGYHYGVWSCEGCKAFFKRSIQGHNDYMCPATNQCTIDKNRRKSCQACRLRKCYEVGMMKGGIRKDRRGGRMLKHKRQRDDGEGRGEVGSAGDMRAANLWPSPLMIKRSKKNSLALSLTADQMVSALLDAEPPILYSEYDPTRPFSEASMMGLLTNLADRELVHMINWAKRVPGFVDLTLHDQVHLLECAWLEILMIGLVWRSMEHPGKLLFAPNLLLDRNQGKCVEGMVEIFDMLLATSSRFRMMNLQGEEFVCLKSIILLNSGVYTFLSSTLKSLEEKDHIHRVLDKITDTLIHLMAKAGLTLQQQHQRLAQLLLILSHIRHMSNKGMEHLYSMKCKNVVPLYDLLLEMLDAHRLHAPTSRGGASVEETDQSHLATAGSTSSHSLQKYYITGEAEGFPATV
Description: Yeast assay, yeast estrogen response (YER), β-gal reporter. Format: cell-based. The settings on record: for estrogenicity: summary statement, no concentration given. As to the method:
Saccharomyces cerevisiae ER+[…], supplied by Dr. Donald P. […] The cultured yeasts were diluted in a medium to a proper concentration and 500 μM of CuSO4 (Sigma, USA) was added thereto. The diluted yeasts were then aliquoted into a 50 Ml tube at a proper level. […] Control group was treated with dimethyl sulfoxide (Sigma, USA). […] The experimental groups and control groups treated with the respective materials were then cultured for 18 hours in a shaking incubator (200 rpm). […] To each well, 100 μl of a Z buffer containing 2 mg/Ml o-nitrophenyl -β-D-galactopyranoside (Sigma, USA), 0.1% lauryl sulfate (Sigma, USA), 50 mM β-mercaptoethanol (BDH chemical LTD, England) and 200 U/Ml oxalyticase (Enzogenetics, USA) was added. After 20 minutes, the coloration was examined using a microplate reader at a wavelength of 420 nm. All the data were analyzed by ANOVA using the statistical program SAS and Dunnett's t-test was performed at significance level P<0.05.

“Also recorded” adds a separate entry of the source.

With `CC(C)(c1ccc(O)cc1)c1ccc(O)cc1` [BPA, bisphenol-A], in test [1] (16 μg/ml, pretest), the “effect on proliferation of MCF-7 cells” value is “showed the highest effect on proliferation”. The “thickness of uterine epithelial cells” value in test [2] (FIG. 14) is recorded as “increased”. In test [2] (FIG. 15), the “thickness of vagina epithelial cells” value is recorded as “increased”.

With `O=C(/C=C/c1ccc(O[C@@H]2O[C@H](CO)[C@@H](O)[C@H](O)[C@H]2O)cc1)c1ccc(O)cc1O` [isoliquiritin, Isoliquiritin], in test [1], the “inhibition of proliferation of MCF-7 breast cancer cell line” value is recorded as “inhibited proliferation; also recorded: no significant proliferation of breast cancer cells was observed” and the “inhibition of proliferation of cancer cells including breast cancer cells” value is listed as “inhibit proliferation of cancer cells”. In test [1] (300 μg/ml, FIG. 5), the “inhibitory effect on proliferation of breast cancer cells (MCF-7)” value is “excellent inhibitory effect”. In test [3], the “suppression of the activity of bisphenol-A” value is “suppress the activity of bisphenol-A”. The androgenicity result on androgen receptor (hAR) was “do not show androgenicity”. For the same compound, in test [4] (10 μg/ml and 100 μg/ml, compared with positive control 10^−9 M estradiol, FIG. 2b), the “estrogenicity (estrogen response, ER)” value was “higher than that of the positive control estradiol”. Also, in test [4], the estrogenicity result is on record as “show estrogenicity”. In test [4] (tested at 10 μg/ml and 100 μg/ml, FIG. 2b), the “concentration showing the highest estrogenicity” value was found to be 10 µg/mL.

Consider Liquiritin, for which, in test [1], the “inhibition of proliferation of MCF-7 breast cancer cell line” value is on record as “inhibited proliferation” and the “inhibition of proliferation of cancer cells including breast cancer cells” value was “inhibit proliferation of cancer cells”. In test [3], the “suppression of the activity of bisphenol-A” value is reported as “suppress the activity of bisphenol-A”. The androgenicity result on androgen receptor (hAR) is “do not show androgenicity”. Further, in test [4], the estrogenicity entry is “show estrogenicity”.
